The values that follow come from patent publication US20230265116A1, “DEGRADATION OF (EGFR) BY CONJUGATION OF EGFR INHIBITORS WITH E3 LIGASE LIGAND AND METHODS OF USE” (BEIGENE, LTD., priority 2020, published 2023).

The target in test [1] is T1, EGFR L858R/T790M/C797S (BaF3-LTC cells) (Homo sapiens, UniProt P00533, C797S/L858R/T790M).
T1 construct: expressed in transfected cells; host or cells: BaF3
The experiment in a line: EGFR degradation HTRF assay, BaF3-LTC cells. In kind it is cell-based. The settings on record: BaF3-LTC cells; for DC50: EGFR degradation, IC50 (DC50) from curve fit, read-out: DC50(nM) BaF3-LTC; for Dmax: maximum percentage of inhibition (degradation), read-out: Dmax (%) BaF3-LTC. Put shortly:
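Cells treated 16 h at 37 °C, 5% CO2 in medium with 0.2% DMSO; top final concentration 10 uM, 5-fold dilution, 8 doses. Lysates read by HTRF (665/620 nm); degradation % versus DMSO high control, DC50 from four-parameter fit, Dmax as maximal degradation.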
(In general: TR-FRET usually uses a lanthanide donor and a delayed reading to cut background.)

For test [2], the system named is EGFR Del19/T790M/C797S (H1975-clone #28). The experiment in a line: EGFR degradation HTRF assay, H1975-clone #28 DTC cells. In kind it is cell-based. The settings on record: H1975 # 28 DTC cells; for DC50: EGFR degradation, IC50 (DC50) from curve fit, read-out: DC50(nM) H1975 # 28 DTC; for Dmax (%) H1975 # 28 DTC: maximum percentage of inhibition (degradation). Put shortly: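 Read-out is an HTRF EGFR signal (337 nm excitation, 665/620 nm) from lysates of mutant-EGFR H1975 clones in which only the exogenous EGFR survives knockout. Treatment ran 16h at 37° C. from 10 uM final downward in 5-fold steps. DC50 comes from a logistic fit and Dmax is the maximal degradation.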

T1 sequence (P00533 25-1210 T790M/C797S/L858R): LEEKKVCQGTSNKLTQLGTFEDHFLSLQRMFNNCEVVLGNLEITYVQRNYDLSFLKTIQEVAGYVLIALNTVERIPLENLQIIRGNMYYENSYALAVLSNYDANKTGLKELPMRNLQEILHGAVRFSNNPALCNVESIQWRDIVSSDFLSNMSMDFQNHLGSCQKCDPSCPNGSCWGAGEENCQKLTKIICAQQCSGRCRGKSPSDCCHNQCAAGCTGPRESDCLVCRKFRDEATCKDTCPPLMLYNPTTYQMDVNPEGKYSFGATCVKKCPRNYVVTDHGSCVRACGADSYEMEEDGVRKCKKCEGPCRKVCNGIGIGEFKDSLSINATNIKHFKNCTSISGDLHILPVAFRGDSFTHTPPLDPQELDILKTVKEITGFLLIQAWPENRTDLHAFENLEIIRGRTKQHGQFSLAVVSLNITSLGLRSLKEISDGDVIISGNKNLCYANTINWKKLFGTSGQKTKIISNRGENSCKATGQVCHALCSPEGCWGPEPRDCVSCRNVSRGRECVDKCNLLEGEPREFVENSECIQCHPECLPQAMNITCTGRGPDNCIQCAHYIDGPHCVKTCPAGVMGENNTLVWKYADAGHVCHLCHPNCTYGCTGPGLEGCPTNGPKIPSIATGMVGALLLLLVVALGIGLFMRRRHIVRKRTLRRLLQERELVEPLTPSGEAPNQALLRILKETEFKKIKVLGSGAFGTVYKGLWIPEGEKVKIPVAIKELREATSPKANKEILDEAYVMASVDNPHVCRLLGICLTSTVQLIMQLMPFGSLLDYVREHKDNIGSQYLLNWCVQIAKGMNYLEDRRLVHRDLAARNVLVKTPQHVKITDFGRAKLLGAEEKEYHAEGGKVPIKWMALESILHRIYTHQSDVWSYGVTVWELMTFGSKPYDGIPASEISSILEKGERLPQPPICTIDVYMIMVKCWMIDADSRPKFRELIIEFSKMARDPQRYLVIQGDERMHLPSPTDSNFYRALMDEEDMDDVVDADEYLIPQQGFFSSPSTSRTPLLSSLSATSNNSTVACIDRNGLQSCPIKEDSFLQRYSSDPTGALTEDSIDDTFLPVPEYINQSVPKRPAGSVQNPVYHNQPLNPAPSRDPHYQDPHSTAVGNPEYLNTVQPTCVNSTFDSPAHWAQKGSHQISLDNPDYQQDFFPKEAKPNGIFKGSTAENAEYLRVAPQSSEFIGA

What is called DC50 is the concentration at which degradation of the target reaches its halfway point. By Dmax is commonly meant the greatest extent of degradation seen. `CCc1cc(Nc2ncc(Br)c(Nc3ccc4nc(C#N)ccc4c3P(C)(C)=O)n2)c(OC)cc1N1CCC(N2CCN(C(=O)[C@@H]3CCN(c4cc(F)c([C@H]5CCC(=O)NC5=O)c(F)c4)C3)CC2)CC1` [Example 674, 6-((5-bromo-2-((4-(4-(4-((R)-1-(4-((R)-2,6-dioxopiperidin-3-yl)-3,5-difluorophenyl)pyrrolidine-3-carbonyl)piperazin-1-yl)piperidin-1-yl)-5-ethyl-2-methoxyphenyl)amino)pyrimidin-4-yl)amino)-5-(dimethylphosphoryl)quinoline-2-carbonitrile]: in test [1], the DC50 turned out to be 9.62 nM and the Dmax is 94.6%. In addition, in test [2], the DC50 is 2.19 nM and the “Dmax (%) H1975 # 28 DTC” value is on record as 69.95%.
The like results for `CCc1cc(Nc2ncc(Br)c(Nc3ccc4nc(C)ccc4c3P(C)(C)=O)n2)c(OC)cc1N1CCC(N2CCN(C(=O)[C@@H]3CCN(c4cc(F)c([C@H]5CCC(=O)NC5=O)c(F)c4)C3)[C@H](CO)C2)CC1` [Example 675, (R)-3-(4-((R)-3-((S)-4-(1-(4-((5-bromo-4-((5-(dimethylphosphoryl)-2-methylquinolin-6-yl)amino)pyrimidin-2-yl)amino)-2-ethyl-5-methoxyphenyl)piperidin-4-yl)-2-(hydroxymethyl)piperazine-1-carbonyl)pyrrolidin-1-yl)-2,6-difluorophenyl)piperidine-2,6-dione] were, in that order, 4.3 nM, 96.5%, 1.01 nM and 82.47%.
With `CCOc1cc(N2CCC(N3CCN(CCc4ccc5c(c4)oc(=O)n5C4CCC(=O)NC4=O)CC3)CC2)c(CC)cc1Nc1ncc(Br)c(Nc2ccc3nc(C)ccc3c2P(C)(C)=O)n1` (stereo not drawn) [Example 676, 3-(6-(2-(4-(1-(4-((5-bromo-4-((5-(dimethylphosphoryl)-2-methylquinolin-6-yl)amino)pyrimidin-2-yl)amino)-5-ethoxy-2-ethylphenyl)piperidin-4-yl)piperazin-1-yl)ethyl)-2-oxobenzo[d]oxazol-3(2H)-yl)piperidine-2,6-diQne], in test [1], the DC50 is 3.14 nM and the Dmax came to 96.4%. Also, in test [2], the DC50 was determined as 0.64 nM and the “Dmax (%) H1975 # 28 DTC” value worked out at 88.89%.
`CCOc1ccc2c(P(C)(C)=O)c(Nc3nc(Nc4cc(CC)c(N5CCC(N6CCN(C(=O)[C@@H]7CCN(c8cc(F)c([C@H]9CCC(=O)NC9=O)c(F)c8)C7)CC6)CC5)cc4OC)ncc3Br)ccc2n1` [Example 677, (R)-3-(4-((R)-3-(4-(1-(4-((5-bromo-4-((5-(dimethylphosphoryl)-2-ethoxyquinolin-6-yl)amino)pyrimidin-2-yl)amino)-2-ethyl-5-methoxyphenyl)piperidin-4-yl)piperazine-1-carbonyl)pyrrolidin-1-yl)-2,6-difluorophenyl)piperidine-2,6-dione]: in test [1], the DC50 worked out at 38 nM and the Dmax is 94.3%. Also, in test [2], the DC50 came out at 3.83 nM and the “Dmax (%) H1975 # 28 DTC” value is given as 77.05%.
For `CCOc1cc(N2CCC(N3CCN(C(=O)[C@@H]4CCN(c5cc(F)c([C@H]6CCC(=O)NC6=O)c(F)c5)C4)CC3)CC2)c(CC)cc1Nc1ncc(Br)c(Nc2cc(F)c3ncccc3c2P(C)(C)=O)n1` [Example 678, (R)-3-(4-((R)-3-(4-(1-(4-((5-bromo-4-((5-(dimethylphosphoryl)-8-fluoroquinolin-6-yl)amino)pyrimidin-2-yl)amino)-5-ethoxy-2-ethylphenyl)piperidin-4-yl)piperazine-1-carbonyl)pyrrolidin-1-yl)-2,6-difluorophenyl)piperidine-2,6-dione] the same measures were 5.8 nM, 94.9%, 1.39 nM and 81.53%.
The like results for `CCOc1cc(N2CCC(N3CCN(CCc4cc(F)c([C@H]5CCC(=O)NC5=O)c(F)c4)CC3)CC2)c(CC)cc1Nc1ncc(Br)c(Nc2ccc3c(=O)n(CC)ncc3c2P(C)(C)=O)n1` [Example 679, (R)-3-(4-(2-(4-(1-(4-((5-bromo-4-((5-(dimethylphosphoryl)-2-ethyl-1-oxo-1,2-dihydrophthalazin-6-yl)amino)pyrimidin-2-yl)amino)-5-ethoxy-2-ethylphenyl)piperidin-4-yl)piperazin-1-yl)ethyl)-2,6-difluorophenyl)piperidine-2,6-dione] were, in that order, 22.6 nM, 93.3%, 1.75 nM and 83.46%.
For `CCc1cc(Nc2ncc(Br)c(Nc3ccc4nc(C(C)(C)O)ccc4c3P(C)(C)=O)n2)c(OC)cc1N1CCC(N2CCN(C(=O)[C@@H]3CCN(c4cc(F)c(C5CCC(=O)NC5=O)c(F)c4)C3)CC2)CC1` (stereo partly drawn) [Example 680, 3-(4-((R)-3-(4-(1-(4-((5-bromo-4-((5-(dimethylphosphoryl)-2-(2-hydroxypropan-2-yl)quinolin-6-yl)amino)pyrimidin-2-yl)amino)-2-ethyl-5-methoxyphenyl)piperidin-4-yl)piperazine-1-carbonyl)pyrrolidin-1-yl)-2,6-difluorophenyl)piperidine-2,6-dione] the same measures were 4.96 nM, 95.1%, 0.763 nM and 85.2%.
In the case of `CCc1cc(Nc2ncc(Br)c(Nc3ccc4nc(C)ccc4c3P(C)(C)=O)n2)c(OC)cc1N1CCC(N2CCN(C(=O)[C@H]3CC[C@@H](Oc4cc(F)c(C5CCC(=O)NC5=O)c(F)c4)CC3)CC2)CC1` (stereo partly drawn) [Example 681, 3-(4-(((1s,4s)-4-(4-(1-(4-((5-bromo-4-((5-(dimethylphosphoryl)-2-methylquinolin-6-yl)amino)pyrimidin-2-yl)amino)-2-ethyl-5-methoxyphenyl)piperidin-4-yl)piperazine-1-carbonyl)cyclohexyl)oxy)-2,6-difluorophenyl)piperidine-2,6-dione], in test [1], the DC50 is 4.65 nM and the Dmax was determined as 96%. Also, in test [2], the DC50 worked out at 1.37 nM and the “Dmax (%) H1975 # 28 DTC” value amounted to 77.05%.
The like results for `CCc1cc(Nc2ncc(Br)c(Nc3ccc4nc(C#N)ccc4c3P(C)(C)=O)n2)c(OC)cc1N1CCC(N2CCN(CCc3cc(F)c([C@H]4CCC(=O)NC4=O)c(F)c3)CC2)CC1` [Example 682, (R)-6-((5-bromo-2-((4-(4-(4-(4-(2,6-dioxopiperidin-3-yl)-3,5-difluorophenethyl)piperazin-1-yl)piperidin-1-yl)-5-ethyl-2-methoxyphenyl)amino)pyrimidin-4-yl)amino)-5-(dimethylphosphoryl)quinoline-2-carbonitrile] were, in that order, 6.79 nM, 95%, 0.91 nM and 87.08%.
The like results for `CCc1cc(Nc2ncc(Br)c(Nc3ccc4nc(C)ccc4c3P(C)(C)=O)n2)c(OC)cc1N1CCC(N2CCN(CCOc3cccc4c3n(C)c(=O)n4C3CCC(=O)NC3=O)CC2)CC1` (stereo not drawn) [Example 683, 3-(4-(2-(4-(1-(4-((5-bromo-4-((5-(dimethylphosphoryl)-2-methylquinolin-6-yl)amino)pyrimidin-2-yl)amino)-2-ethyl-5-methoxyphenyl)piperidin-4-yl)piperazin-1-yl)ethoxy)-3-methyl-2-oxo-2,3-dihydro-1H-benzo[d]imidazol-1-yl)piperidine-2,6-dione] were, in that order, 1.11 nM, 95.9%, 0.595 nM and 75.35%.
Regarding `CCc1cc(Nc2ncc(Br)c(Nc3ccc4c(C)nccc4c3P(C)(C)=O)n2)c(OC)cc1N1CCC(N2CCN(CCc3cc(F)c([C@H]4CCC(=O)NC4=O)c(F)c3)CC2)CC1` [Example 684, (R)-3-(4-(2-(4-(1-(4-((5-bromo-4-((5-(dimethylphosphoryl)-1-methylisoquinolin-6-yl)amino)pyrimidin-2-yl)amino)-2-ethyl-5-methoxyphenyl)piperidin-4-yl)piperazin-1-yl)ethyl)-2,6-difluorophenyl)piperidine-2,6-dione], in test [1], the DC50 worked out at 12.4 nM and the Dmax worked out at 91.4%. For the same molecule, in test [2], the DC50 is 1.06 nM and the “Dmax (%) H1975 # 28 DTC” value was 88.35%.
The like results for `CCc1cc(Nc2ncc(Br)c(Nc3ccc4nc(C)sc4c3P(C)(C)=O)n2)c(OC)cc1N1CCC(N2CCN(C(=O)[C@@H]3CCN(c4cc(F)c([C@H]5CCC(=O)NC5=O)c(F)c4)C3)CC2)CC1` [Example 685, (R)-3-(4-((R)-3-(4-(1-(4-((5-bromo-4-((7-(dimethylphosphoryl)-2-methylbenzo[d]thiazol-6-yl)amino)pyrimidin-2-yl)amino)-2-ethyl-5-methoxyphenyl)piperidin-4-yl)piperazine-1-carbonyl)pyrrolidin-1-yl)-2,6-difluorophenyl)piperidine-2,6-dione] were, in that order, 5.29 nM, 95%, 0.787 nM and 83.23%.
